Measurements reported in PubChem BioAssay (NCI).
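Interpolation was linear, between the two tested concentrations surrounding the appropriate level; five concentrations were tested over 48 hours in 96-well plates. Definition used: TGI = concentration required for complete inhibition of growth.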

How the values were obtained:
Test in all cases: growth of human tumour cells (NCI), 48 h
[1] = test system: HCT-116 colon
[2] = test system: A498 renal
[3] = test system: SW-620 colon
[4] = test system: HT29 colon
[5] = test system: CAKI-1 renal
[6] = test system: EKVX NSCLC
[7] = test system: SF-268 CNS
[8] = test system: COLO 205 colon
[9] = test system: A549 NSCLC
[10] = test system: PC-3 prostate
[11] = test system: MDA-MB-435
[12] = test system: HL-60(TB) leukemia
[13] = test system: MOLT-4 leukemia
[14] = test system: SNB-75 CNS
[15] = test system: OVCAR-5 ovarian
[16] = test system: OVCAR-4 ovarian
[17] = test system: NCI-H522 lung
[18] = test system: ACHN renal
[19] = test system: LOX IMVI melanoma
[20] = test system: MCF7 breast
[21] = test system: SK-MEL-28 melanoma
[22] = test system: DU-145 prostate
[23] = test system: HOP-92 NSCLC
[24] = test system: UACC-257 melanoma
[25] = test system: IGROV1 ovarian
[26] = test system: KM12 colon
[27] = test system: MDA-N
[28] = test system: SK-OV-3 ovarian
[29] = test system: K-562 leukemia
[30] = test system: NCI-H226 lung
[31] = test system: SK-MEL-5 melanoma
[32] = test system: CCRF-CEM leukemia
[33] = test system: SN12C renal
[34] = test system: SNB-19 CNS
[35] = test system: MALME-3M melanoma
[36] = test system: T-47D breast
[37] = test system: OVCAR-8 ovarian
[38] = test system: NCI-H23 lung
[39] = test system: HCC-2998 colon
[40] = test system: BT-549 breast
[41] = test system: MDA-MB-231 breast
[42] = test system: UO-31 renal
[43] = test system: SF-539 CNS
[44] = test system: TK-10 renal
[45] = test system: SR leukemia
[46] = test system: RPMI-8226 leukemia
[47] = test system: HOP-62 NSCLC
[48] = test system: NCI-H460 lung
[49] = test system: UACC-62 melanoma
[50] = test system: RXF 393 renal
[51] = test system: 786-0 renal
[52] = test system: SF-295 CNS
[53] = test system: OVCAR-3 ovarian
[54] = test system: U251 CNS
[55] = test system: HCT-15 colon
[56] = test system: HS 578T breast
[57] = test system: NCI/ADR-RES ovarian
[58] = test system: M14 melanoma

CCOC(=O)NC(Nc1ccc(F)cc1)(C(=O)OCC)C(F)(F)F (stereo not drawn)
TGI [1]: > 100 µM | TGI [2]: > 100 µM | TGI [3]: > 100 µM | TGI [4]: > 100 µM | TGI [5]: > 100 µM | TGI [6]: > 100 µM | TGI [7]: > 100 µM | TGI [8]: > 100 µM | TGI [9]: > 100 µM | TGI [10]: > 100 µM | TGI [11]: > 100 µM | TGI [12]: > 100 µM | TGI [13]: > 100 µM | TGI [14]: > 100 µM | TGI [15]: > 100 µM | TGI [16]: > 100 µM | TGI [17]: > 100 µM | TGI [18]: > 100 µM | TGI [19]: > 100 µM | TGI [20]: > 100 µM | TGI [21]: > 100 µM | TGI [22]: > 100 µM | TGI [23]: > 100 µM | TGI [24]: > 100 µM | TGI [25]: > 100 µM | TGI [26]: > 100 µM | TGI [27]: > 100 µM | TGI [28]: > 100 µM | TGI [29]: > 100 µM | TGI [30]: > 100 µM | TGI [31]: > 100 µM | TGI [32]: > 23.9 µM | TGI [33]: > 100 µM | TGI [34]: > 100 µM | TGI [35]: > 100 µM | TGI [36]: > 100 µM | TGI [37]: > 100 µM | TGI [38]: > 100 µM | TGI [39]: > 100 µM | TGI [40]: > 100 µM | TGI [41]: > 100 µM | TGI [42]: > 100 µM | TGI [43]: > 100 µM | TGI [44]: > 100 µM | TGI [45]: > 100 µM | TGI [46]: > 100 µM | TGI [47]: > 100 µM | TGI [48]: > 100 µM | TGI [49]: > 100 µM | TGI [50]: > 100 µM | TGI [51]: > 100 µM | TGI [52]: > 100 µM | TGI [53]: > 100 µM | TGI [54]: > 100 µM | TGI [55]: > 100 µM | TGI [56]: > 100 µM | TGI [57]: > 100 µM | TGI [58]: > 100 µM
